Data: ChEMBL document CHEMBL1201861, “Genomics of Drug Sensitity in Cancer screening data, Wellcome Trust Sanger Institute”

How the values were obtained:
Test in all cases: cells
[1] = test system: CW-2; assay type: functional, cell-based, Homo sapiens; conditions: Homo sapiens, CW-2;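 note: growth inhibition of CW-2 cells, read out by a cell viability assay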
Description: SANGER: Inhibition of human CW-2 cell growth in a cell viability assay.

[2] = test system: D-336MG; assay type: functional, cell-based, Homo sapiens; conditions: Homo sapiens, D-336MG
Description: SANGER: Inhibition of human D-336MG cell growth in a cell viability assay.

[3] = test system: DOHH-2; assay type: functional, cell-based; conditions: Homo sapiens;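 note: growth inhibition of human DOHH-2 cells, read out with a cell viability assay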
Description: SANGER: Inhibition of human DOHH-2 cell growth in a cell viability assay.

[4] = test system: DOK; assay type: functional, cell-based, Homo sapiens; conditions: Homo sapiens, DOK;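 note: cell viability assay read-out, values reflect inhibition of cell growth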
Description: SANGER: Inhibition of human DOK cell growth in a cell viability assay.

[5] = test system: EM-2; assay type: functional, cell-based; conditions: Homo sapiens;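 note: growth inhibition of EM-2 cells, read out with a cell viability assay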
Description: SANGER: Inhibition of human EM-2 cell growth in a cell viability assay.

[6] = test system: EW-3; assay type: functional, cell-based; conditions: Homo sapiens;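 note: cell viability assay read-out, IC50 reflects inhibition of growth of the EW-3 cells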
Description: SANGER: Inhibition of human EW-3 cell growth in a cell viability assay.

[7] = test system: FaDu; assay type: functional, cell-based, Homo sapiens; conditions: Homo sapiens, FaDu;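 note: cell viability readout of growth inhibition in FaDu cells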
Description: SANGER: Inhibition of human FADU cell growth in a cell viability assay.

[8] = test system: G-402; assay type: functional, cell-based, Homo sapiens; conditions: Homo sapiens, G-402
Description: SANGER: Inhibition of human G-402 cell growth in a cell viability assay.

[9] = test system: GT3TKB; assay type: functional, cell-based, Homo sapiens; conditions: Homo sapiens, GT3TKB;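 note: growth inhibition of the cell line, read out with a cell viability assay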
Description: SANGER: Inhibition of human GT3TKB cell growth in a cell viability assay.

[10] = test system: HCC1419; assay type: functional, cell-based, Homo sapiens; conditions: Homo sapiens, HCC1419;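 note: growth inhibition of human HCC1419 cells, read out as cell viability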
Description: SANGER: Inhibition of human HCC1419 cell growth in a cell viability assay.

[11] = test system: HCC2218; assay type: functional, cell-based; conditions: Homo sapiens;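 note: cell viability assay read-out, with IC50 given as the concentration that inhibits growth of the cell line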
Description: SANGER: Inhibition of human HCC2218 cell growth in a cell viability assay.

[12] = test system: HCT-116; assay type: functional, cell-based, Homo sapiens; conditions: Homo sapiens, HCT-116
Description: SANGER: Inhibition of human HCT-116 cell growth in a cell viability assay.

[13] = test system: HEC-1; assay type: functional, cell-based, Homo sapiens; conditions: Homo sapiens, HEC-1;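 note: growth inhibition of the cell line, read out with a cell viability assay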
Description: SANGER: Inhibition of human HEC-1 cell growth in a cell viability assay.

[14] = test system: HGC-27; assay type: functional, cell-based, Homo sapiens; conditions: Homo sapiens, HGC-27;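 note: growth inhibition of human HGC-27 cells, read out in a cell viability assay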
Description: SANGER: Inhibition of human HGC-27 cell growth in a cell viability assay.

[15] = test system: HO-1-N-1; assay type: functional, cell-based, Homo sapiens; conditions: Homo sapiens, HO-1-N-1;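 note: growth inhibition of human HO-1-N-1 cells, read out with a cell viability assay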
Description: SANGER: Inhibition of human HO-1-N-1 cell growth in a cell viability assay.

[16] = test system: HT-3; assay type: functional, cell-based, Homo sapiens; conditions: Homo sapiens, HT-3;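 note: growth inhibition measured with a cell viability readout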
Description: SANGER: Inhibition of human HT-3 cell growth in a cell viability assay.

[17] = test system: HuP-T3; assay type: functional, cell-based, Homo sapiens; conditions: Homo sapiens, HuP-T3;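 note: HuP-T3 cell growth inhibition, read out with a cell viability assay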
Description: SANGER: Inhibition of human HuP-T3 cell growth in a cell viability assay.

[18] = test system: KGN; assay type: functional, cell-based, Homo sapiens; conditions: Homo sapiens, KGN;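 note: growth inhibition of KGN cells, read out with a cell viability assay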
Description: SANGER: Inhibition of human KGN cell growth in a cell viability assay.

[19] = test system: KM12; assay type: functional, cell-based, Homo sapiens; conditions: Homo sapiens, KM12;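 note: KM12 cell growth inhibition, read out with a cell viability assay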
Description: SANGER: Inhibition of human KM12 cell growth in a cell viability assay.

[20] = test system: LB831-BLC; assay type: functional, cell-based, Homo sapiens; conditions: Homo sapiens, LB831-BLC;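 note: growth inhibition of LB831-BLC cells, read out with a cell viability assay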
Description: SANGER: Inhibition of human LB831-BLC cell growth in a cell viability assay.

[21] = test system: LNCaP-Clone-FGC; assay type: functional, cell-based, Homo sapiens; conditions: Homo sapiens, LNCaP-Clone-FGC
Description: SANGER: Inhibition of human LNCaP-Clone-FGC cell growth in a cell viability assay.

[22] = test system: LS-123; assay type: functional, cell-based, Homo sapiens; conditions: Homo sapiens, LS-123
Description: SANGER: Inhibition of human LS-123 cell growth in a cell viability assay.

[23] = test system: MC116; assay type: functional, cell-based; conditions: Homo sapiens;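 note: growth inhibition of MC116 cells, read out with a cell viability assay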
Description: SANGER: Inhibition of human MC116 cell growth in a cell viability assay.

[24] = test system: MDA-MB-231; assay type: functional, cell-based, Homo sapiens; conditions: Homo sapiens, MDA-MB-231
Description: SANGER: Inhibition of human MDA-MB-231 cell growth in a cell viability assay.

[25] = test system: MFM-223; assay type: functional, cell-based, Homo sapiens; conditions: Homo sapiens, MFM-223
Description: SANGER: Inhibition of human MFM-223 cell growth in a cell viability assay.

[26] = test system: MOLT-4; assay type: functional, cell-based; conditions: Homo sapiens;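 note: growth inhibition of MOLT-4 cells, determined with a cell viability readout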
Description: SANGER: Inhibition of human MOLT-4 cell growth in a cell viability assay.

[27] = test system: Mo; assay type: functional, cell-based; conditions: Homo sapiens
Description: SANGER: Inhibition of human Mo-T cell growth in a cell viability assay.

[28] = test system: NCI-H1693; assay type: functional, cell-based, Homo sapiens; conditions: Homo sapiens, NCI-H1693;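 note: growth inhibition of the human cell line, read out with a cell viability assay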
Description: SANGER: Inhibition of human NCI-H1693 cell growth in a cell viability assay.

[29] = test system: NCI-H2087; assay type: functional, cell-based, Homo sapiens; conditions: Homo sapiens, NCI-H2087;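 note: growth inhibition determined with a cell viability readout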
Description: SANGER: Inhibition of human NCI-H2087 cell growth in a cell viability assay.

[30] = test system: SNU-5; assay type: functional, cell-based; conditions: Homo sapiens;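 note: cell viability readout used to measure growth inhibition in human NCI-SNU-5 cells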
Description: SANGER: Inhibition of human NCI-SNU-5 cell growth in a cell viability assay.

[31] = test system: NTERA-2-cl-D1; assay type: functional, cell-based, Homo sapiens; conditions: Homo sapiens, NTERA-2-cl-D1;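 note: inhibition of cell growth, measured with a cell viability assay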
Description: SANGER: Inhibition of human NTERA-S-cl-D1 cell growth in a cell viability assay.

[32] = test system: OCI-AML2; assay type: functional, cell-based; conditions: Homo sapiens;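 note: growth inhibition of OCI-AML2 cells, read out with a cell viability assay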
Description: SANGER: Inhibition of human OCI-AML2 cell growth in a cell viability assay.

[33] = test system: RPMI-7951; assay type: functional, cell-based, Homo sapiens; conditions: Homo sapiens, RPMI-7951
Description: SANGER: Inhibition of human RPMI-7951 cell growth in a cell viability assay.

[34] = test system: SF-539; assay type: functional, cell-based, Homo sapiens; conditions: Homo sapiens, SF-539;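 note: Read-out is a cell viability assay, with IC50 reflecting inhibition of cell growth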
Description: SANGER: Inhibition of human SF539 cell growth in a cell viability assay.

[35] = test system: SK-MEL-1; assay type: functional, cell-based; conditions: Homo sapiens;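 note: growth inhibition of human SK-MEL-1 cells, read out by a cell viability assay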
Description: SANGER: Inhibition of human SK-MEL-1 cell growth in a cell viability assay.

[36] = test system: SK-MEL-2; assay type: functional, cell-based, Homo sapiens; conditions: Homo sapiens, SK-MEL-2;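 note: growth inhibition of human SK-MEL-2 cells measured with a cell viability assay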
Description: SANGER: Inhibition of human SK-MEL-2 cell growth in a cell viability assay.

[37] = test system: SK-MES-1; assay type: functional, cell-based, Homo sapiens; conditions: Homo sapiens, SK-MES-1;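 note: growth inhibition of human SK-MES-1 cells, read out with a cell viability assay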
Description: SANGER: Inhibition of human SK-MES-1 cell growth in a cell viability assay.

[38] = test system: SK-NEP-1; assay type: functional, cell-based; conditions: Homo sapiens;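 note: growth inhibition of human SK-NEP-1 cells, read out by a cell viability assay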
Description: SANGER: Inhibition of human SK-NEP-1 cell growth in a cell viability assay.

[39] = test system: T98G; assay type: functional, cell-based, Homo sapiens; conditions: Homo sapiens, T98G;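 note: growth inhibition of T98G cells, read out by a cell viability assay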
Description: SANGER: Inhibition of human T98G cell growth in a cell viability assay.

[40] = test system: 8305C; assay type: functional, cell-based, Homo sapiens; conditions: Homo sapiens, 8305C
Description: SANGER: Inhibition of human 8305C cell growth in a cell viability assay.

[41] = test system: A204; assay type: functional, cell-based, Homo sapiens; conditions: Homo sapiens, A204;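 note: growth inhibition of human A204 cells, read out with a cell viability assay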
Description: SANGER: Inhibition of human A204 cell growth in a cell viability assay.

[42] = test system: A673; assay type: functional, cell-based, Homo sapiens; conditions: Homo sapiens, A673;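 note: growth inhibition of human A673 cells, read out through a cell viability assay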
Description: SANGER: Inhibition of human A673 cell growth in a cell viability assay.

[43] = test system: ACHN; assay type: functional, cell-based, Homo sapiens; conditions: Homo sapiens, ACHN;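 note: cell viability read-out used to gauge how strongly growth of human ACHN cells is suppressed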
Description: SANGER: Inhibition of human ACHN cell growth in a cell viability assay.

[44] = test system: ASPC1; assay type: functional, cell-based, Homo sapiens; conditions: Homo sapiens, ASPC1;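 note: growth inhibition of AsPC-1 cells, read out with a cell viability assay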
Description: SANGER: Inhibition of human AsPC-1 cell growth in a cell viability assay.

[45] = test system: BFTC-909; assay type: functional, cell-based, Homo sapiens; conditions: Homo sapiens, BFTC-909
Description: SANGER: Inhibition of human BFTC-909 cell growth in a cell viability assay.

[46] = test system: BT-20; assay type: functional, cell-based, Homo sapiens; conditions: Homo sapiens, BT-20;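 note: cell viability assay measuring suppression of growth in human BT-20 cells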
Description: SANGER: Inhibition of human BT-20 cell growth in a cell viability assay.

[47] = test system: C2BBe1; assay type: functional, cell-based, Homo sapiens; conditions: Homo sapiens, C2BBe1;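 note: growth inhibition of C2BBe1 cells, read out through a viability assay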
Description: SANGER: Inhibition of human C2BBe1 cell growth in a cell viability assay.

[48] = test system: CAL-54; assay type: functional, cell-based, Homo sapiens; conditions: Homo sapiens, CAL-54;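 note: growth inhibition of CAL-54 cells, read out by a viability measurement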
Description: SANGER: Inhibition of human CAL-54 cell growth in a cell viability assay.

[49] = test system: VM-CUB-1; assay type: functional, cell-based; conditions: Homo sapiens;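 note: cell viability assay measuring growth inhibition of the human VM-CUB-1 cell line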
Description: SANGER: Inhibition of human VM-CUB-1 cell growth in a cell viability assay.

[50] = test system: YAPC; assay type: functional, cell-based, Homo sapiens; conditions: Homo sapiens, YAPC;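 note: growth inhibition of YAPC cells, measured with a cell viability assay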
Description: SANGER: Inhibition of human YAPC cell growth in a cell viability assay.

[51] = test system: no-10; assay type: functional, cell-based, Homo sapiens; conditions: Homo sapiens;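 note: growth inhibition of no-10 cells, read out with a cell viability assay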
Description: SANGER: Inhibition of human no-10 cell growth in a cell viability assay.

[52] = test system: CAS-1; assay type: functional, cell-based, Homo sapiens; conditions: Homo sapiens, CAS-1;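 note: growth inhibition of CAS-1 cells, measured with a cell viability assay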
Description: SANGER: Inhibition of human CAS-1 cell growth in a cell viability assay.

COC(=O)CNC(=O)C(=O)OC
IC50 [1]: > 4000 µM
IC50 [2]: > 4000 µM
IC50 [3]: 281 µM
IC50 [4]: > 4000 µM
IC50 [5]: 234 µM
IC50 [6]: 1890 µM
IC50 [7]: 99.9 µM
IC50 [8]: 1230 µM
IC50 [9]: 242 µM
IC50 [10]: > 4000 µM
IC50 [11]: > 4000 µM
IC50 [12]: 658 µM
IC50 [13]: 954 µM
IC50 [14]: 188 µM
IC50 [15]: 1070 µM
IC50 [16]: 853 µM
IC50 [17]: 404 µM
IC50 [18]: 62.8 µM
IC50 [19]: 2240 µM
IC50 [20]: 911 µM
IC50 [21]: 3210 µM
IC50 [22]: > 4000 µM
IC50 [23]: 174 µM
IC50 [24]: 368 µM
IC50 [25]: > 4000 µM
IC50 [26]: 718 µM
IC50 [27]: 1880 µM
IC50 [28]: 3790 µM
IC50 [29]: 108 µM
IC50 [30]: > 4000 µM
IC50 [31]: 57.6 µM
IC50 [32]: 501 µM
IC50 [33]: 322 µM
IC50 [34]: 310 µM
IC50 [35]: 2370 µM
IC50 [36]: 1960 µM
IC50 [37]: 221 µM
IC50 [38]: 976 µM
IC50 [39]: 666 µM
IC50 [40]: 603 µM
IC50 [41]: 398 µM
IC50 [42]: 526 µM
IC50 [43]: 297 µM
IC50 [44]: 3920 µM
IC50 [45]: 252 µM
IC50 [46]: 947 µM
IC50 [47]: 1730 µM
IC50 [48]: 1250 µM
IC50 [49]: 151 µM
IC50 [50]: > 4000 µM
IC50 [51]: 995 µM
IC50 [52]: 264 µM

CCC1=C[C@@H]2CN(C1)Cc1c([nH]c3ccccc13)[C@@](C(=O)OC)(c1cc3c(cc1OC)N(C)[C@H]1[C@@](O)(C(=O)OC)[C@H](OC(C)=O)[C@]4(CC)C=CCN5CC[C@]31[C@@H]54)C2 [VINORELBINE]
IC50 [1]: > 0.064 µM
IC50 [2]: 0.0639 µM
IC50 [3]: 0.00504 µM
IC50 [4]: > 0.064 µM
IC50 [5]: 0.0448 µM
IC50 [6]: > 0.064 µM
IC50 [7]: 0.0485 µM
IC50 [8]: 0.0321 µM
IC50 [9]: 0.000748 µM
IC50 [10]: > 0.064 µM
IC50 [11]: 0.0571 µM
IC50 [12]: 0.00337 µM
IC50 [13]: 0.0227 µM
IC50 [14]: 0.00185 µM
IC50 [15]: 0.00665 µM
IC50 [16]: > 0.064 µM
IC50 [17]: > 0.064 µM
IC50 [18]: 0.00705 µM
IC50 [19]: 0.00261 µM
IC50 [20]: 0.0292 µM
IC50 [21]: 0.0179 µM
IC50 [22]: > 0.064 µM
IC50 [23]: 0.0155 µM
IC50 [24]: 0.0374 µM
IC50 [25]: > 0.064 µM
IC50 [26]: 0.00666 µM
IC50 [27]: > 0.064 µM
IC50 [28]: > 0.064 µM
IC50 [29]: 0.00822 µM
IC50 [30]: 0.0458 µM
IC50 [31]: 0.000939 µM
IC50 [32]: 0.0103 µM
IC50 [33]: 0.00882 µM
IC50 [34]: 0.0141 µM
IC50 [35]: > 0.064 µM
IC50 [36]: 0.00718 µM
IC50 [37]: 0.00573 µM
IC50 [38]: 0.00899 µM
IC50 [39]: 0.0189 µM
IC50 [40]: 0.00492 µM
IC50 [41]: 0.00321 µM
IC50 [42]: 0.00727 µM
IC50 [43]: 0.0458 µM
IC50 [44]: > 0.064 µM
IC50 [45]: 0.0108 µM
IC50 [46]: 0.0124 µM
IC50 [47]: > 0.064 µM
IC50 [48]: > 0.064 µM
IC50 [49]: 0.0191 µM
IC50 [50]: > 0.064 µM
IC50 [51]: 0.0456 µM
IC50 [52]: 0.0401 µM
